Consider three compounds from patent US12606553B2, “Crystalline forms, compositions containing same, and methods of their use” (FOGHORN THERAPEUTICS INC., priority 2021, dated 2026).

Common to all, as to type: physicochemical
Data set [1] is described as follows: Dynamic vapor sorption (DVS), with XRPD on the post-DVS sample. To be noted: for DVS weight increase during exposure to 80% RH: 25° C., humidity ramped 0 to 95% RH, value at 80% RH; for structural change by XRPD after DVS (exposure to high humidity): XRPD on post-DVS sample; for hygroscopicity classification from DVS: based on weight increase up to 80% RH. The protocol:
Dynamic vapor sorption (DVS) was carried out using the TA Instruments Q5000 SA. A predefined amount of the sample, 2.0 to 10.0 mg, was placed in a platinum pan. The sample was allowed to equilibrate at 50° C. at 0% RH for a period of 60 minutes. The sample was then equilibrated at 25° C. before ramping the humidity from 0 to 95% RH at 5% increments every hour. A similar ramp profile was used for desorption cycle. XRPD analysis was also performed on post DVS sample.

Data set [2] can be described thus: Single solvent slurry screen. The protocol: Magnetic stirrers were added to vials, and the suspensions were allowed to stir at room temperature for 4 days. Solid samples generated were analyzed via XRPD to assess crystallinity and crystal structure.
The nature of data set [3]: Temperature cycled single solvent slurry screen. The protocol: Magnetic stirrers were added to vials, and the suspensions were cycled between 50° C. and 5° C. for three cycles with agitation. Solid samples generated were analyzed via XRPD to assess crystallinity and crystal structure. […] Solid samples were obtained from slurries in all other solvents screened.
Data set [4] in a line: Thermal gravimetric analysis (TGA) and DSC: thermal degradation. To be noted: heated at 10° C./minute under nitrogen. The method, then:
DSC data was collected on a TA Instruments Q2000 DSC. A predefined amount of the sample, 2.0 to 10.0 mg, was placed in an aluminum pan and heated at 5° C./minute from 25° C. to 220° C. A purge of dry nitrogen at 100 mL/minute was maintained over the sample. The instrument control and data acquisition are acquired using Q Advantage software release version 5.5.23. The data was processed and presented using the TA Universal Analysis 2000 software version 4.5A build 4.5.0.5.
TGA data was collected on a TA Instruments Q5000 TGA. A predefined amount of the sample, 2.0 to 10.0 mg, was placed in an aluminum pan and heated at 10° C./minute from 40° C. to 300° C., or varied as experimentation dictated. A purge of dry nitrogen at 25 mL/minute was maintained over the sample. The instrument control and data acquisition are acquired using Q Advantage software release version 5.5.23. The data was processed and presented using the TA Universal Analysis 2000 software version 4.5A build 4.5.0.5.

The nature of data set [5]: Binary solvent slurry screen. To be noted: room temperature. The method, then:
Solvent combinations were selected based on solvent properties, functionality, and miscibility. […] Magnetic stirrers were added to vials, and the suspensions were allowed to stir at room temperature for 5 days.

The nature of data set [6]: Evaporative salt and co-crystal screen (1H NMR, HPLC). To be noted: combined with sodium hydroxide and potassium hydroxide.
Data set [7] can be described thus: Competitive suspension equilibration study. To be noted: room temperature and 60° C. The method, then:
A competitive suspension equilibration study was carried out to identify the relative stability of the two crystalline forms of the compound of formula (I) in aqueous and organic solvent systems. Competitive suspension equilibration experiments were conducted in ethyl acetate, 50% methanol/water (v/v) and 50% acetonitrile/water (v/v) at room temperature and 60° C. […] Further crystalline forms of the compound of formula (I) (e.g., the first and second crystalline forms of the compound of formula (I)) were added for conversion material and to act as seeds. Each suspension was allowed to stir for 7 or 14 days, and were analyzed via XRPD to determine which form the solids had converted to.

Take `COC[C@H](NC(=O)c1ccn(S(C)(=O)=O)c1)C(=O)Nc1nc(-c2cccc(N3C[C@@H](C)O[C@@H](C)C3)n2)cs1` [second crystalline form of the compound of formula (I)]: the “DVS weight increase during exposure to 80% RH” value in data set [1] is given as 0.04 % (w/w). In addition, in data set [1], the “structural change by XRPD after DVS (exposure to high humidity)” value is listed as “no structural changes occurred”. Further, the “hygroscopicity classification from DVS” value in data set [1] is on record as “non-hygroscopic”. For the same compound, the “solubility in THF” value in data set [2] (room temperature slurry) and in data set [3] (temperature cycled slurry) was “extremely high” throughout. In addition, the “crystal structure after slurry (XRPD), form stability” value is reported as “the same crystal structure” in data set [2] (single solvents except THF, stirred at room temperature for 4 days); “the same crystal structure” in data set [3] (single solvents except THF, cycled between 50° C. and 5° C. for three cycles); “the same crystal structure” in data set [5] (50/50 (v/v) solvent mixtures except methanol/THF, 5 days). Also, the “molecular degradation temperature (TGA/DSC), degradation from” value in data set [4] came to 240 °C. Besides, the “solubility in methanol/THF” value in data set [5] (50/50 (v/v)) is “high”.

For `COC[C@H](NC(=O)c1ccn(S(C)(=O)=O)c1)C(=O)Nc1nc(-c2cccc(N3C[C@@H](C)O[C@@H](C)C3)n2)cs1` [first crystalline form of the compound of formula (I)], in data set [1], the “DVS weight increase during exposure to 80% RH” value is listed as 1.4 % (w/w), the “structural change by XRPD after DVS (exposure to high humidity)” value is “no structural changes occurred” and the “hygroscopicity classification from DVS” value is “slightly hygroscopic”. Also, in data set [4], the “molecular degradation onset (TGA/DSC)” value stood at 254.3 °C and the “molecular degradation temperature (TGA/DSC), degradation from” value came out at 220 °C.

For the compound `COC[C@H](NC(=O)c1ccn(S(C)(=O)=O)c1)C(=O)Nc1nc(-c2cccc(N3C[C@@H](C)O[C@@H](C)C3)n2)cs1` [compound of formula (I)], the “chemical stability in a basic environment (1H NMR, HPLC)” value in data set [6] is “molecular degradation was visible”. Further, the “form conversion of mixed first and second crystalline forms (XRPD)” value was “did not result in the conversion of either crystalline form to the other” in data set [7] (aqueous solvents (methanol/water 14 days, acetonitrile/water 7 days)) and “fully converted to the second crystalline form” in data set [7] (ethyl acetate, methanol, acetonitrile, within seven days).
